{
  "source": "patent US9790210B2",
  "about": "“N-(monocyclic aryl),N'-pyrazolyl-urea, thiourea, guanidine and cyanoguanidine compounds as TrkA kinase inhibitors” (Array BioPharma Inc., priority 2012, dated 2017)",
  "assay_in_all_cases": "KinaseProfiler",
  "format_in_all_cases": "biochemical",
  "settings_in_all_cases": "10 μM, ATP near Km",
  "key": {"Bmx": {"biological_target": "T1, Bmx (Homo sapiens, UniProt P51813)", "T1 construct": "purchased Millipore (KinaseProfiler service)", "procedure": "(§1) A representative compound (Example 15) of the invention was tested for off-target kinase activity at a concentration of 10 μM by Millipore, Inc. in their KinaseProfiler™ service against all the kinases available in their full kinase panel. The compound was run in duplicate at a concentration of ATP near the Km for each individual kinase according to Millipore's specifications. The results are shown in Table B. Data are reported as percent of control (POC) and are the average of the two replicates."}, "CDK9/cyclinT1": {"biological_target": "T2, CDK9/cyclinT1 (Homo sapiens, UniProt P50750)", "T2 construct": "purchased Millipore, Inc. (KinaseProfiler service)", "procedure": "as §1"}, "CK2": {"biological_target": "T3, CK2 (Homo sapiens, UniProt P68400)", "T3 construct": "purchased Millipore, Inc. (KinaseProfiler service)", "procedure": "as §1"}, "CK2alpha2": {"biological_target": "T4, CK2alpha2 (Homo sapiens, UniProt P19784)", "T4 construct": "purchased Millipore, Inc. (KinaseProfiler service)", "procedure": "as §1"}, "DRAK1": {"biological_target": "T5, DRAK1 (Homo sapiens, UniProt Q9UEE5)", "T5 construct": "purchased Millipore, Inc. (KinaseProfiler service)", "procedure": "as §1"}, "EphA2": {"biological_target": "T6, EphA2 (Homo sapiens, UniProt P29317)", "T6 construct": "purchased Millipore, Inc. (KinaseProfiler service)", "procedure": "as §1"}, "EphA7": {"biological_target": "T7, EphA7 (Homo sapiens, UniProt Q15375)", "T7 construct": "purchased Millipore, Inc. (KinaseProfiler service)", "procedure": "as §1"}, "FAK2": {"biological_target": "T8, FAK2 (Homo sapiens, UniProt Q14289)", "T8 construct": "purchased Millipore, Inc. (KinaseProfiler service)", "procedure": "as §1"}, "FGFR3": {"biological_target": "T9, FGFR3 (Homo sapiens, UniProt P22607)", "T9 construct": "purchased Millipore, Inc. (KinaseProfiler service)", "procedure": "as §1"}, "Flt4": {"biological_target": "T10, Flt4 (Homo sapiens, UniProt P35916)", "T10 construct": "purchased Millipore, Inc. (KinaseProfiler service)", "procedure": "as §1"}, "Fyn": {"biological_target": "T11, Fyn (Homo sapiens, UniProt P06241)", "T11 construct": "purchased Millipore, Inc. (KinaseProfiler service)", "procedure": "as §1"}, "GRK5": {"biological_target": "T12, GRK5 (Homo sapiens, UniProt P34947)", "T12 construct": "purchased Millipore, Inc. (KinaseProfiler service)", "procedure": "as §1"}, "IKKalpha": {"biological_target": "T13, IKKalpha (Homo sapiens, UniProt O15111)", "T13 construct": "purchased Millipore, Inc. (KinaseProfiler service)", "procedure": "as §1"}, "ITK": {"biological_target": "T14, ITK (Homo sapiens, UniProt Q08881)", "T14 construct": "purchased Millipore, Inc. (KinaseProfiler service)", "procedure": "as §1"}, "JAK3": {"biological_target": "T15, JAK3 (Homo sapiens, UniProt P52333)", "T15 construct": "purchased Millipore, Inc. (KinaseProfiler service)", "procedure": "as §1"}, "LIMK1": {"biological_target": "T16, LIMK1 (Homo sapiens, UniProt P53667)", "T16 construct": "purchased Millipore, Inc. (KinaseProfiler service)", "procedure": "as §1"}, "LKB1": {"biological_target": "T17, LKB1 (Homo sapiens, UniProt Q15831)", "T17 construct": "purchased Millipore, Inc. (KinaseProfiler service)", "T17 sequence (Q15831 whole entry)": "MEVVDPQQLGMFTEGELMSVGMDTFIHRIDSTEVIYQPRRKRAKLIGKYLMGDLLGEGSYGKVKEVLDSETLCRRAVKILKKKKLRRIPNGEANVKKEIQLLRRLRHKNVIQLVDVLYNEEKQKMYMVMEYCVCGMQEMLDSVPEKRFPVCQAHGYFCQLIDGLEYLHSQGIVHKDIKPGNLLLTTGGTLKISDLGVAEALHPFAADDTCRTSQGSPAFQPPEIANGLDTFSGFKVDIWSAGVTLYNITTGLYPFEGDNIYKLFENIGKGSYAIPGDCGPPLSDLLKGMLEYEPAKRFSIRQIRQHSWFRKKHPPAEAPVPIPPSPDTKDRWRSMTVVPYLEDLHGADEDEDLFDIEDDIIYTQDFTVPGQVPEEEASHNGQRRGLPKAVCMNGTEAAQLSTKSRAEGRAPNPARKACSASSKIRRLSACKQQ", "T17 sequence (Q7RTN6 whole entry partner)": "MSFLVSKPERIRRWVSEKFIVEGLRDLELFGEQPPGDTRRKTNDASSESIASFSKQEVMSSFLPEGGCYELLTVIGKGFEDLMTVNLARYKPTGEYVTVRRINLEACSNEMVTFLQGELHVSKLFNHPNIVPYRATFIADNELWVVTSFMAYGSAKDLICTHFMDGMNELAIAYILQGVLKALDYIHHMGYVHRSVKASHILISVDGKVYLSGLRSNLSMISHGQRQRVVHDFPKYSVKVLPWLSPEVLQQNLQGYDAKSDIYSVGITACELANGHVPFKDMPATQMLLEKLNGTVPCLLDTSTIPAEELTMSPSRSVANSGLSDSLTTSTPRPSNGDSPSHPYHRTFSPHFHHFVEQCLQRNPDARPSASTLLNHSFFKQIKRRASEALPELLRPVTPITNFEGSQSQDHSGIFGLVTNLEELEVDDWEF", "T17 sequence (Q9Y376 whole entry partner)": "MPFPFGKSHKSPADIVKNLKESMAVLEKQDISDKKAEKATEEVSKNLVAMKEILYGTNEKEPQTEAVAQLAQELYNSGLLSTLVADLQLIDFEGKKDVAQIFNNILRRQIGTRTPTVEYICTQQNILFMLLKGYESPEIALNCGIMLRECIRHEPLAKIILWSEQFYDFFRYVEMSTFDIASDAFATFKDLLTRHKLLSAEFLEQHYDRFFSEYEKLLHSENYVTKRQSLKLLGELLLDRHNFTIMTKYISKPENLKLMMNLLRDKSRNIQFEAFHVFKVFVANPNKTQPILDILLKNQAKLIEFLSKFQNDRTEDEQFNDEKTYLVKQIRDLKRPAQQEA", "procedure": "as §1"}, "Lck": {"biological_target": "T18, Lck (Homo sapiens, UniProt P06239)", "T18 construct": "purchased Millipore, Inc. (KinaseProfiler service)", "procedure": "as §1"}, "MAP3K5": {"biological_target": "T19, MAP3K5 (Homo sapiens, UniProt Q99683)", "T19 construct": "purchased Millipore, Inc. (KinaseProfiler service)", "procedure": "as §1"}, "MAP4K2": {"biological_target": "T20, MAP4K2 (Homo sapiens, UniProt Q12851)", "T20 construct": "purchased Millipore, Inc. (KinaseProfiler service)", "T20 sequence (Q12851 whole entry)": "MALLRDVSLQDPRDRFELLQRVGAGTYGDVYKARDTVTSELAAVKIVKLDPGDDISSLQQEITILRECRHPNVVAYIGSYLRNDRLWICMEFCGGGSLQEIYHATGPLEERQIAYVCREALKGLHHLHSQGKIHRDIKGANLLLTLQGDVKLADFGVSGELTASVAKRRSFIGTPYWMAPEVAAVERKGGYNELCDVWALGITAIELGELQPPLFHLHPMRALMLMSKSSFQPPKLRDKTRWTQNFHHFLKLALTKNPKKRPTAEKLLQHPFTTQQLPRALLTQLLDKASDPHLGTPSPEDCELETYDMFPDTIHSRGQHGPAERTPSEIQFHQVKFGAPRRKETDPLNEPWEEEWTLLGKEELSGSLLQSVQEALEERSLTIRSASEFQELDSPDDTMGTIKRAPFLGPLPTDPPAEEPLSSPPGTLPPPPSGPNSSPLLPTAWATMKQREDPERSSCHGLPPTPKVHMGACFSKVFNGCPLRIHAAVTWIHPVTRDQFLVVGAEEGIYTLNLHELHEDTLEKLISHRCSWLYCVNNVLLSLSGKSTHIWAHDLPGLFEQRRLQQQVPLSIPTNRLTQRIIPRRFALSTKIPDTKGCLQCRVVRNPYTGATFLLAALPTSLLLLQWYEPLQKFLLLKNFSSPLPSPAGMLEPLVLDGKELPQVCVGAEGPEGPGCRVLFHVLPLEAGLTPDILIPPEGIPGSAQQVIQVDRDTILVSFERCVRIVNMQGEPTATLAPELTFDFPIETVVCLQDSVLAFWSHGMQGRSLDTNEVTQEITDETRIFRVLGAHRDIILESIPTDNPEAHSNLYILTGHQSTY", "procedure": "as §1"}, "MST2": {"biological_target": "T21, MST2 (Homo sapiens, UniProt Q13188)", "T21 construct": "purchased Millipore, Inc. (KinaseProfiler service)", "procedure": "as §1"}, "MYLK": {"biological_target": "T22, MYLK (Homo sapiens, UniProt Q15746)", "T22 construct": "purchased Millipore, Inc. (KinaseProfiler service)", "procedure": "as §1"}, "Mer": {"biological_target": "T23, Mer (Homo sapiens, UniProt Q12866)", "T23 construct": "purchased Millipore, Inc. (KinaseProfiler service)", "procedure": "as §1"}, "NEK6": {"biological_target": "T24, NEK6 (Homo sapiens, UniProt Q9HC98)", "T24 construct": "purchased Millipore, Inc. (KinaseProfiler service)", "T24 sequence (Q9HC98 whole entry)": "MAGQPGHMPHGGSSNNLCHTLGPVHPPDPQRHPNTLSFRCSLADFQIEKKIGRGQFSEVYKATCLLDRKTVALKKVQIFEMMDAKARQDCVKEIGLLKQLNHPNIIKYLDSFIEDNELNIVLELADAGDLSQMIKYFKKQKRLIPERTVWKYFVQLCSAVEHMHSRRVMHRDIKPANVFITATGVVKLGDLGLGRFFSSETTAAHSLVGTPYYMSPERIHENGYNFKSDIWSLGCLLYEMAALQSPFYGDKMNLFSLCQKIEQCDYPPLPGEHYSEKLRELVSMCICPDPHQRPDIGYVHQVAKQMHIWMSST", "procedure": "as §1"}, "PAK4": {"biological_target": "T25, PAK4 (Homo sapiens, UniProt O96013)", "T25 construct": "purchased Millipore, Inc. (KinaseProfiler service)", "T25 sequence (O96013 whole entry)": "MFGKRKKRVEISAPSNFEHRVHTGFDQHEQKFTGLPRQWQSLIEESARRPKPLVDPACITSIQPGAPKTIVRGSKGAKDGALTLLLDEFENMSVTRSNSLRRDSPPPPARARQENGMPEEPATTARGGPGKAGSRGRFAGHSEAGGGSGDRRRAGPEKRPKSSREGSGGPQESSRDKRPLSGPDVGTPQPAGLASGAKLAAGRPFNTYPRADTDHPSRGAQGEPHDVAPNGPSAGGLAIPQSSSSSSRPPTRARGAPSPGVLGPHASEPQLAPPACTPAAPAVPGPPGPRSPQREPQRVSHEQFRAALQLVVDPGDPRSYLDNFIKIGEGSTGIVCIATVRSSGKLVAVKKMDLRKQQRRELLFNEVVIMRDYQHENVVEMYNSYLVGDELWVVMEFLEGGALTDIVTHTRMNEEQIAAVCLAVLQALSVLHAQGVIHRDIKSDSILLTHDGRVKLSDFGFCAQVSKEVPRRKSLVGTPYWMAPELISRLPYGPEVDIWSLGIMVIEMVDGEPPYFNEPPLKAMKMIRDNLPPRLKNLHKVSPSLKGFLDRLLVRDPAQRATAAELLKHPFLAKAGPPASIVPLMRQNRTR", "procedure": "as §1"}, "PASK": {"biological_target": "T26, PASK (Homo sapiens, UniProt Q96RG2)", "T26 construct": "purchased Millipore, Inc. (KinaseProfiler service)", "procedure": "as §1"}, "PDGFRbeta": {"biological_target": "T27, PDGFRbeta (Homo sapiens, UniProt P09619)", "T27 construct": "purchased Millipore, Inc. (KinaseProfiler service)", "procedure": "as §1"}, "PKCalpha": {"biological_target": "T28, PKCalpha (Homo sapiens, UniProt P17252)", "T28 construct": "purchased Millipore, Inc. (KinaseProfiler service)", "procedure": "as §1"}, "PKCiota": {"biological_target": "T29, PKCiota (Homo sapiens, UniProt P41743)", "T29 construct": "purchased Millipore, Inc. (KinaseProfiler service)", "procedure": "as §1"}, "PKD2": {"biological_target": "T30, PKD2 (Homo sapiens, UniProt Q9BZL6)", "T30 construct": "purchased Millipore, Inc. (KinaseProfiler service)", "procedure": "as §1"}, "PTK5": {"biological_target": "T31, PTK5 (Homo sapiens, UniProt P42685)", "T31 construct": "purchased Millipore, Inc. (KinaseProfiler service)", "procedure": "as §1"}, "Pim-1": {"biological_target": "T32, Pim-1 (Homo sapiens, UniProt P11309)", "T32 construct": "purchased Millipore, Inc. (KinaseProfiler service)", "T32 sequence (P11309 whole entry)": "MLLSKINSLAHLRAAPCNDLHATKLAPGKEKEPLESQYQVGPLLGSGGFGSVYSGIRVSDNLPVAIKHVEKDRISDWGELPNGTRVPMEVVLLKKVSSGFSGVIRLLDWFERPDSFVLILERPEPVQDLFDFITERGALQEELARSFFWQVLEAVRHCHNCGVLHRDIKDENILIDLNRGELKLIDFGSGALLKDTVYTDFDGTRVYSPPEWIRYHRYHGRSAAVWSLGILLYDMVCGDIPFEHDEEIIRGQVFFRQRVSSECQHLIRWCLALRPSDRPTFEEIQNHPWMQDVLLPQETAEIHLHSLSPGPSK", "procedure": "as §1"}, "Ros": {"biological_target": "T33, Ros (Homo sapiens, UniProt P08922)", "T33 construct": "purchased Millipore, Inc. (KinaseProfiler service)", "procedure": "as §1"}, "Rse": {"biological_target": "T34, Rse (Homo sapiens, UniProt Q06418)", "T34 construct": "purchased Millipore, Inc. (KinaseProfiler service)", "T34 sequence (Q06418 41-890)": "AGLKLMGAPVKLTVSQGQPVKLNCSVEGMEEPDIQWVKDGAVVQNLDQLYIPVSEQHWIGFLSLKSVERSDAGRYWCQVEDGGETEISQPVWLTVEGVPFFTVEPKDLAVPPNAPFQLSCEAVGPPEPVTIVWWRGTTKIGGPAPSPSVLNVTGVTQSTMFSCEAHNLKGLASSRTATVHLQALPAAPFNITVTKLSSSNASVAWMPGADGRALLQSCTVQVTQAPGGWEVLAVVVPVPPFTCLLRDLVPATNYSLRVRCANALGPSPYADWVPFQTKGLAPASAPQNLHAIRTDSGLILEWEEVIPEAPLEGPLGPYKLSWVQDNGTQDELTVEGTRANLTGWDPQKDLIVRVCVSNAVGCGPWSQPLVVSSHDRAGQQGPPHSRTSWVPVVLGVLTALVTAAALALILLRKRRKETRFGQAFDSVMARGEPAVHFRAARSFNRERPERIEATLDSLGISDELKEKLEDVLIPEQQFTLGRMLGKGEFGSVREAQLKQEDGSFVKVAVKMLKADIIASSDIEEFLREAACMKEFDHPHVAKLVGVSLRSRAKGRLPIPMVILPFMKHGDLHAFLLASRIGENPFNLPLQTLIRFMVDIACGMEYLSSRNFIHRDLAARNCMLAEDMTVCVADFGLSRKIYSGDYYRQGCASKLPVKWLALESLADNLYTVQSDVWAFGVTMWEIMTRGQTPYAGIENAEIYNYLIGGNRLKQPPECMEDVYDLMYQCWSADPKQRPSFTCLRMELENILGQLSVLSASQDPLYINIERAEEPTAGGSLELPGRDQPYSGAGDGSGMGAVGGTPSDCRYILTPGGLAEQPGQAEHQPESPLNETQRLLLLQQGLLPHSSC", "procedure": "as §1"}, "SGK2": {"biological_target": "T35, SGK2 (Homo sapiens, UniProt Q9HBY8)", "T35 construct": "purchased Millipore, Inc. (KinaseProfiler service)", "procedure": "as §1"}, "SRPK2": {"biological_target": "T36, SRPK2 (Homo sapiens, UniProt P78362)", "T36 construct": "purchased Millipore, Inc. (KinaseProfiler service)", "procedure": "as §1"}, "TAK1": {"biological_target": "T37, TAK1 (Homo sapiens, UniProt O43318)", "T37 construct": "purchased Millipore, Inc. (KinaseProfiler service)", "procedure": "as §1"}, "TLK2": {"biological_target": "T38, TLK2 (Homo sapiens, UniProt Q86UE8)", "T38 construct": "purchased Millipore, Inc. (KinaseProfiler service)", "procedure": "as §1"}, "WNK3": {"biological_target": "T39, WNK3 (Homo sapiens, UniProt Q9BYP7)", "T39 construct": "purchased Millipore, Inc. (KinaseProfiler service)", "procedure": "as §1"}, "Yes": {"biological_target": "T40, Yes (Homo sapiens, UniProt P07947)", "T40 construct": "purchased Millipore, Inc. (KinaseProfiler service)", "procedure": "as §1"}, "mTOR": {"biological_target": "T41, mTOR (Homo sapiens, UniProt P42345)", "T41 construct": "purchased Millipore, Inc. (KinaseProfiler service)", "procedure": "as §1"}},
  "data": [
    {"smiles": "COCCCc1cc(Cl)c(Cl)cc1NC(=O)Nc1c(C)c(-c2cnn(C)c2)nn1-c1ccccc1", "note": "[Example 15, 1-(4,5-dichloro-2-(3-methoxypropyl)phenyl)-3-(1′,4-dimethyl-1-phenyl-1H,1′H-[3,4′-bipyrazol]-5-yl)urea]", "values": [
      {"measurement": "Avg POC", "setting": "Bmx", "value": 129.5, "unit": "POC"},
      {"measurement": "Avg POC", "setting": "CDK9/cyclinT1", "value": 112.5, "unit": "POC"},
      {"measurement": "Avg POC", "setting": "CK2", "value": 94.5, "unit": "POC"},
      {"measurement": "Avg POC", "setting": "CK2alpha2", "value": 112.5, "unit": "POC"},
      {"measurement": "Avg POC", "setting": "DRAK1", "value": 135.5, "unit": "POC"},
      {"measurement": "Avg POC", "setting": "EphA2", "value": 104, "unit": "POC"},
      {"measurement": "Avg POC", "setting": "EphA7", "value": 103, "unit": "POC"},
      {"measurement": "Avg POC", "setting": "FAK2", "value": 102.5, "unit": "POC"},
      {"measurement": "Avg POC", "setting": "FGFR3", "value": 106.5, "unit": "POC"},
      {"measurement": "Avg POC", "setting": "Flt4", "value": 91, "unit": "POC"},
      {"measurement": "Avg POC", "setting": "Fyn", "value": 111.5, "unit": "POC"},
      {"measurement": "Avg POC", "setting": "GRK5", "value": 90, "unit": "POC"},
      {"measurement": "Avg POC", "setting": "IKKalpha", "value": 128, "unit": "POC"},
      {"measurement": "Avg POC", "setting": "ITK", "value": 125, "unit": "POC"},
      {"measurement": "Avg POC", "setting": "JAK3", "value": 111, "unit": "POC"},
      {"measurement": "Avg POC", "setting": "LIMK1", "value": 93.5, "unit": "POC"},
      {"measurement": "Avg POC", "setting": "LKB1", "value": 90.5, "unit": "POC"},
      {"measurement": "Avg POC", "setting": "Lck", "value": 94.5, "unit": "POC"},
      {"measurement": "Avg POC", "setting": "MAP3K5", "value": 105, "unit": "POC"},
      {"measurement": "Avg POC", "setting": "MAP4K2", "value": 112.5, "unit": "POC"},
      {"measurement": "Avg POC", "setting": "MST2", "value": 101.5, "unit": "POC"},
      {"measurement": "Avg POC", "setting": "MYLK", "value": 111.5, "unit": "POC"},
      {"measurement": "Avg POC", "setting": "Mer", "value": 97.5, "unit": "POC"},
      {"measurement": "Avg POC", "setting": "NEK6", "value": 111.5, "unit": "POC"},
      {"measurement": "Avg POC", "setting": "PAK4", "value": 110.5, "unit": "POC"},
      {"measurement": "Avg POC", "setting": "PASK", "value": 188, "unit": "POC"},
      {"measurement": "Avg POC", "setting": "PDGFRbeta", "value": 134, "unit": "POC"},
      {"measurement": "Avg POC", "setting": "PKCalpha", "value": 104, "unit": "POC"},
      {"measurement": "Avg POC", "setting": "PKCiota", "value": 68, "unit": "POC"},
      {"measurement": "Avg POC", "setting": "PKD2", "value": 98.5, "unit": "POC"},
      {"measurement": "Avg POC", "setting": "PTK5", "value": 102.5, "unit": "POC"},
      {"measurement": "Avg POC", "setting": "Pim-1", "value": 108, "unit": "POC"},
      {"measurement": "Avg POC", "setting": "Ros", "value": 105.5, "unit": "POC"},
      {"measurement": "Avg POC", "setting": "Rse", "value": 109, "unit": "POC"},
      {"measurement": "Avg POC", "setting": "SGK2", "value": 117.5, "unit": "POC"},
      {"measurement": "Avg POC", "setting": "SRPK2", "value": 113.5, "unit": "POC"},
      {"measurement": "Avg POC", "setting": "TAK1", "value": 95, "unit": "POC"},
      {"measurement": "Avg POC", "setting": "TLK2", "value": 101, "unit": "POC"},
      {"measurement": "Avg POC", "setting": "WNK3", "value": 108.5, "unit": "POC"},
      {"measurement": "Avg POC", "setting": "Yes", "value": 120.5, "unit": "POC"},
      {"measurement": "Avg POC", "setting": "mTOR", "value": 102.5, "unit": "POC"}
    ]}
  ]
}
